molecular target: T1, pSTAT3 (pY705-STAT3) (Homo sapiens, UniProt P40763); test: MSD-pSTAT-PBMC Assay (pSTAT3, IL-6 stimulated); assay type: cell-based; conditions: not given
T1 construct: host or cells: cryopreserved PBMC
How it was run: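 Human PBMCs (50,000 cells/well for STAT3, 25,000 for STAT6) treated with compound 3 h, then stimulated 10 min with 10 ng/mL IL-6 or 1 ng/mL IL-4. Lysate pSTAT3 (pY705) or pSTAT6 (pY641) measured by MSD sandwich electrochemiluminescence. Signal minus unstimulated, normalized to DMSO; IC50 by variable-slope nonlinear regression.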

T1 sequence (P40763 whole entry): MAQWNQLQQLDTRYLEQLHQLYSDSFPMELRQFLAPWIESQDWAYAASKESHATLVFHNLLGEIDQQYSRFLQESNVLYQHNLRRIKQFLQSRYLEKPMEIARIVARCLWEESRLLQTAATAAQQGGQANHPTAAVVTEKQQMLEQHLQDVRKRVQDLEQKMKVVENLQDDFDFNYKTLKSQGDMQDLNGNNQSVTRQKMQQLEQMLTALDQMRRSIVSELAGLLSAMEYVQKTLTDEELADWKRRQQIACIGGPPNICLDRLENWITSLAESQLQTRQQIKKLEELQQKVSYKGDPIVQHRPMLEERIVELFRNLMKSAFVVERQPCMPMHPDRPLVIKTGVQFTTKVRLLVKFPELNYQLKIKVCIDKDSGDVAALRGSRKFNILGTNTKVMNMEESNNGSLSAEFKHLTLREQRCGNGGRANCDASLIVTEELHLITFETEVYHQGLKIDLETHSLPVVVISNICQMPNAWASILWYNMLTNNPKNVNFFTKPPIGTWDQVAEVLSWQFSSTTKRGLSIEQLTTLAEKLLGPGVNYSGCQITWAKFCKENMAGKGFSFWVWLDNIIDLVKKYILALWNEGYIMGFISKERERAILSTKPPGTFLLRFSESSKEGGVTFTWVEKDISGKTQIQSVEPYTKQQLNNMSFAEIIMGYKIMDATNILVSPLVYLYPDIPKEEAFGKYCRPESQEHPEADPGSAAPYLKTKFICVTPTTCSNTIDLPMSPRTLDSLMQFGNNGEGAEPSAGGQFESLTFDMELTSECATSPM

Question: `CCCOC(=O)[C@H](C)NP(=O)(Oc1ccccc1)C(F)c1ccc2sc(C(=O)N[C@H]3C[C@@H]4C[C@@H]4C[C@H]4CC[C@@H](C(=O)N5CC(c6cncnc6N6CCC6)C5)N4C3=O)cc2c1` (stereo partly drawn) [Compound 412, propyl(((S)-(2-(((3S,6S,7aS,8aR,9aR)-3-(3-(4-(azetidin-1-yl)pyrimidin-5-yl)azetidine-1-carbonyl)-5-oxodecahydro-1H-cyclopropa[d]pyrrolo[1,2-a]azocin-6-yl)carbamoyl)benzo[b]thiophen-5-yl)fluoromethyl)(phenoxy)phosphoryl)-L-alaninate] was tested. Which IC50 did it give?
Answer: < 100 nM

Question: How did the IC50 turn out when `CCCOC(=O)[C@H](C)NP(=O)(Oc1ccccc1)[C@H](F)c1ccc2sc(C(=O)N[C@H]3C[C@@H]4C[C@@H]4C[C@H]4CC[C@@H](C(=O)N5CC(c6cnccc6N6CCOCC6)C5)N4C3=O)cc2c1` (stereo partly drawn) [Compound 413, propyl(((S)-fluoro(2-(((3S,6S,7aS,8aR,9aR)-3-(3-(4-morpholinopyridin-3-yl)azetidine-1-carbonyl)-5-oxodecahydro-1H-cyclopropa[d]pyrrolo[1,2-a]azocin-6-yl)carbamoyl)benzo[b]thiophen-5-yl)methyl)(phenoxy)phosphoryl)-L-alaninate] was run?
Answer: < 100 nM

Question: How did the IC50 turn out when `CCCOC(=O)[C@H](C)NP(=O)(Oc1ccccc1)[C@H](F)c1ccc2sc(C(=O)N[C@H]3C[C@@H]4C[C@@H]4C[C@H]4CC[C@@H](C(=O)N5CC(c6cnccc6N6CC[C@H]6COC)C5)N4C3=O)cc2c1` (stereo partly drawn) [Compound 416, propyl(((S)-fluoro(2-(((3S,6S,7aS,8aR,9aR)-3-(3-(4-((S)-2-(methoxymethyl)azetidin-1-yl)pyridin-3-yl)azetidine-1-carbonyl)-5-oxodecahydro-1H-cyclopropa[d]pyrrolo[1,2-a]azocin-6-yl)carbamoyl)benzo[b]thiophen-5-yl)methyl)(phenoxy)phosphoryl)-L-alaninate] was run?
Answer: < 100 nM

Question: With `CCCOC(=O)[C@H](C)N[P@](=O)(Oc1ccccc1)C(F)c1ccc2sc(C(=O)N[C@H]3C[C@@H]4C[C@@H]4C[C@H]4CC[C@@H](C(=O)N5CC(c6cnccc6N(C)C)C5)N4C3=O)cc2c1` (stereo partly drawn) [Compound 418, propyl((R)-((S)-(2-(((3S,6S,7aS,8aR,9aR)-3-(3-(4-(dimethylamino)pyridin-3-yl)azetidine-1-carbonyl)-5-oxodecahydro-1H-cyclopropa[d]pyrrolo[1,2-a]azocin-6-yl)carbamoyl)benzo[b]thiophen-5-yl)fluoromethyl)(phenoxy)phosphoryl)-L-alaninate] as the compound, how does the IC50 read?
Answer: < 100 nM

Question: How did the IC50 turn out when `CCCOC(=O)[C@H](C)NP(=O)(Oc1ccccc1)C(F)c1ccc2sc(C(=O)N[C@H]3C[C@@H]4C[C@@H]4C[C@H]4CC[C@@H](C(=O)N5CC(c6cnccc6OCC)C5)N4C3=O)cc2c1` (stereo partly drawn) [Compound 423, propyl(((S)-(2-(((3S,6S,7aS,8aR,9aR)-3-(3-(4-ethoxypyridin-3-yl)azetidine-1-carbonyl)-5-oxodecahydro-1H-cyclopropa[d]pyrrolo[1,2-a]azocin-6-yl)carbamoyl)benzo[b]thiophen-5-yl)fluoromethyl)(phenoxy)phosphoryl)-L-alaninate] was run?
Answer: < 100 nM

Question: With `CCCOC(=O)[C@H](C)NP(=O)(Oc1ccccc1)C(F)c1ccc2sc(C(=O)N[C@H]3C[C@@H]4C[C@@H]4C[C@H]4CC[C@@H](C(=O)N5CC(c6cnccc6N6CCN(C)CC6)C5)N4C3=O)cc2c1` (stereo partly drawn) [Compound 424, propyl(((R)-fluoro(2-(((3S,6S,7aS,8aR,9aR)-3-(3-(4-(4-methylpiperazin-1-yl)pyridin-3-yl)azetidine-1-carbonyl)-5-oxodecahydro-1H-cyclopropa[d]pyrrolo[1,2-a]azocin-6-yl)carbamoyl)benzo[b]thiophen-5-yl)methyl)(phenoxy)phosphoryl)-L-alaninate] as the compound, how does the IC50 read?
Answer: 100 to 1000 nM

same assay, conditions: PBMC, compound 3 hrs, then 10 ng/mL IL-6 for 10 min; MSD pY705-STAT3; read-out: pSTAT3

Question: `CCCOC(=O)[C@H](C)N[P@@](=O)(Oc1ccccc1)[C@H](F)c1ccc2sc(C(=O)N[C@H]3C[C@H]4C[C@H]4C[C@H]4CC[C@@H](C(=O)N5CC(c6cnccc6N(C)C)C5)N4C3=O)cc2c1` [Compound 398, propyl((R)-((S)-(2-(((3S,6S,7aR,8aS,9aR)-3-(3-(4-(dimethylamino)pyridin-3-yl)azetidine-1-carbonyl)-5-oxodecahydro-1H-cyclopropa[d]pyrrolo[1,2-a]azocin-6-yl)carbamoyl)benzo[b]thiophen-5-yl)fluoromethyl)(phenoxy)phosphoryl)-L-ananinate] was tested. Which IC50 did it give?
Answer: < 100 nM

Question: How did the IC50 turn out when `CCCOC(=O)[C@H](C)N[P@@](=O)(Oc1ccccc1)[C@H](F)c1ccc2sc(C(=O)N[C@H]3C[C@H]4C[C@H]4C[C@H]4CC[C@@H](C(=O)N5CC(c6cnccc6N(C)C)C5)N4C3=O)cc2c1` [Compound 399] was run?
Answer: < 100 nM

Question: How did the IC50 turn out when `CCCOC(=O)[C@H](C)N[P@@](=O)(Oc1ccccc1)[C@@H](F)c1ccc2sc(C(=O)N[C@H]3C[C@@H]4C[C@@H]4C[C@H]4CC[C@@H](C(=O)N5CC(c6cnccc6N(C)C)C5)N4C3=O)cc2c1` [Compound 414, propyl((S)-((R)-(2-(((3S,6S,7aS,8aR,9aR)-3-(3-(4-(dimethylamino)pyridin-3-yl)azetidine-1-carbnyl)-5-oxodecahydro-1H-cyclopropa[d]pyrrolo[1,2-a]azocin-6-yl)carbamoyl)benzo[b]thiophen-5-yl)fluoromethyl)(phenoxy)phosphoryl)-L-alaninate] was run?
Answer: < 100 nM

Question: “propyl(((2-(((3S,6S,7aS,8aR,9aR)-3-((1R,5R)-2-acetyl-2,6-diazabicyclo[3.2.0]heptane-6-carbonyl)-5-oxodecahydro-1H-cyclopropa[d]pyrrolo[1,2-a]azocin-6-yl)carbamoyl)benzo[b]thiophen-5-yl)fluoromethyl)(phenoxy)phosphoryl)-L-alaninate [Compound 292]” was tested. Which IC50 did it give?
Answer: < 100 nM

Question: For “propyl(((2-(((3S,6S,7aS,8aR,9aR)-8a-methyl-5-oxo-3-(3-(pyridin-3-yl)azetidine-1-carbonyl)decahydro-1H-cyclopropa[d]pyrrolo[1,2-a]azocin-6-yl)carbamoyl)benzo[b]thiophen-5-yl)methyl)(phenoxy)phosphoryl)-L-alaninate [Compound 233]”, which IC50 is on record?
Answer: < 100 nM

Question: Which IC50 does the source give for “propyl(((2-(((3S,6S,8aR,9aS,9bR)-8a-methyl-5-oxo-3-(3-(pyridin-3-yl)azetidine-1-carbonyl)decahydro-1H-cyclopropa[c]pyrrolo[1,2-a]azocin-6-yl)carbamoyl)benzo[b]thiophen-5-yl)methyl)(phenoxy)phosphoryl)-L-alaninate [Compound 232]” here?
Answer: < 100 nM
